From US20240174690A1, “ANNULATED 2-AMINO-3-CYANO THIOPHENES AND DERIVATIVES FOR THE TREATMENT OF CANCER” (BOEHRINGER INGELHEIM INTERNATIONAL GMBH, priority 2021, published 2024)
Values after ≈ are worked out from the molar mass of the structure shown. Where two headings read alike, the source gives them in different places.

Assays:
SAS cells = assay: SAS CTG proliferation assay (120 h) (HNSCC, wt amplified); format: cell-based
Procedure: SAS CTG Proliferation Assay (120 h) (HNSCC, Wt Amplified)
(§1) SAS cells (JCRB0260) are dispensed into 384-well plates, flat and clear bottom (Greiner, PNr. 781091) at a density of 300 cells per well in 60 μL DMEM:F12 (Gibco 31330-038)+10% Fetal Calf Serum (HyClone, PNr.: SH30084.03) and incubated at 37° C. in a CO2 incubator overnight. The next day, compounds (10 mM stock in DMSO) are added with the ECHO acoustic liquid handler system (Beckman Coulter), including DMSO controls. Plates are incubated for 120 h, and cell viability is measured using CellTiter-Glo luminescent cell viability reagent (Promega product code G7570). Viability (stated as percent of control) is defined as relative luminescence units RLU of each well divided by the RLU of cells in DMSO controls. IC50 values are determined from viability measurements by non-linear regression using a four-parameter model.

NCI-H2122 cells = assay: NCI-H2122 CTG proliferation assay (120 h) (NSCLC, G12C); format: cell-based; conditions: Homo sapiens
Procedure: NCI-H2122 CTG Proliferation Assay (120 h) (NSCLC, G12C)
The CTG assay is designed to measure quantitatively the proliferation of NCI-H2122 cells (ATCC CRL-5985), using the CellTiter Glow Assay Kit (Promega G7571). Cells are grown in RPMI medium (ATCC) supplemented with Fetal Calf Serum (Life Technologies, Gibco BRL, Cat. No. 10270-106). On “day 0” 200 NCI-H2122 cells are seeded in 60 μL RPMI ATCC+10% FCS+Penstrep in a black 384-well plate, flat and clear bottom (Greiner, PNr. 781091). Cells are then incubated in the plates at 37° C. in a CO2 incubator overnight. On day 1, compounds (10 mM stock in DMSO) are added with the ECHO acoustic liquid handler system (Beckman Coulter), including DMSO controls. Plates are incubated for 120 h, and cell viability is measured using CellTiter-Glo luminescent cell viability reagent (Promega product code G7570). Viability (stated as percent of control) is defined as relative luminescence units RLU of each well divided by the RLU of cells in DMSO controls. IC50 values are determined from viability measurements by non-linear regression using a four parameter model.

NCI-H358 cells = assay: NCI-H358 CTG proliferation assay (120 h) (NSCLC, G12C); format: cell-based, human; conditions: Homo sapiens
How it was run: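 IC50 values derive from four-parameter nonlinear regression of CellTiter-Glo viability (RLU relative to DMSO wells) after 120 h of exposure. Cells were plated in RPMI-1640 + 10% FCS at 2000 per well (assay 1) or 200 per well (assay 2). Untreated cells were measured at compound addition as T0.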

[1] = Solubility measurement (DMSO solution method), McIlvaine buffer pH 4.5 or 6.8; format: physicochemical; conditions: aqueous buffer, kinetic from dmso stock, DMSO stock diluted to 250 μM, 24 h shaking at ambient temperature
How it was run: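 Filtrate concentration by LC-UV, calibrated to a known-concentration reference dissolved completely in acetonitrile/water (1:1). Samples came from 250 µM final dilutions of DMSO stock in pH 4.5 or 6.8 McIlvaine buffer, shaken 24 h at ambient temperature, then filtered.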

CYP3A4 = CYP3A4 (Homo sapiens (Human), UniProt P08684); assay: Mechanism based inhibition of CYP3A4 assay (MBI 3A4); format: in vitro ADME; conditions: hydroxy-midazolam formation after 30 min vs 0 min preincubation, 25 uM, human liver microsomes
Sequence of CYP3A4 (P08684 whole entry): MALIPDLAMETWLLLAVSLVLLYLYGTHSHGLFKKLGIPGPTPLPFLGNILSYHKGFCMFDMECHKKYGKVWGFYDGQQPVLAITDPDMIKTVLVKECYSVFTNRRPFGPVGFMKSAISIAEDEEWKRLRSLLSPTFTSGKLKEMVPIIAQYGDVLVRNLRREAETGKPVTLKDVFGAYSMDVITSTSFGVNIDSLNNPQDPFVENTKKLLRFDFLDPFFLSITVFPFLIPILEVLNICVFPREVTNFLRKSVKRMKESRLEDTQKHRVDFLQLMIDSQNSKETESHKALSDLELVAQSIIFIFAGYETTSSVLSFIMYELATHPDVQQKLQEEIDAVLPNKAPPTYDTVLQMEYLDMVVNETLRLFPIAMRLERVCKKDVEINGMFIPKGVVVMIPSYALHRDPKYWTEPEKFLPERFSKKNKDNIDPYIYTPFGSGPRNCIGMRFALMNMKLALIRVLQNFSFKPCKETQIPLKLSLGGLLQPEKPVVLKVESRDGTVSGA
Procedure: After preincubation, the incubate is diluted 1:10 and the substrate midazolam is added for the main incubation (15 min). The main incubation is quenched with acetonitrile and the formation of hydroxy-midazolam is quantified via LC/MS-MS. The formation of hydroxy-midazolam from the 30 min preincubation relative to the formation from the 0 min preincubation is used as a readout. Values of less than 100% mean that the substrate midazolam is metabolized to a lower extent upon 30 min preincubation compared to 0 min preincubation. In general low effects upon 30 min preincubation are desired (corresponding to values close to 100%/not different to the values determined with water control).

SK-CO-1 cells = assay: SK-CO-1 CTG proliferation assay (120 h) (CRC, G12V); format: cell-based; conditions: Homo sapiens; SK-CO-1 cells (CRC, G12V), CTG 120 h
Procedure: SK-CO-1 CTG Proliferation Assay (120 h) (CRC, G12V)
as §1, with “SK-CO-1 cells (ATCC” for “SAS cells (JCRB0260)”, “SK-CO-1 cells (ATCC HTB-39) are dispensed” for “SAS cells (JCRB0260) are dispensed”, “density of 500 cells per” for “density of 300 cells per”, “60 μL EMEM (Sigma M5650)+10% Fetal Calf” for “60 μL DMEM:F12 (Gibco 31330-038)+10% Fetal Calf”

[2] = assay 2, CTG, read-out: H358 (assay 2) IC50
[3] = McIlvaine buffer pH 4.5, read-out: solubility pH 4.5
[4] = McIlvaine buffer pH 6.8, read-out: solubility pH 6.8

| SMILES | IC50 (SAS cells) [nM] | IC50 (NCI-H2122 cells) [nM] | IC50 (NCI-H358 cells; [2]) [nM] | solubility at 24 h [1, 3] [µg/mL] | solubility at 24 h [1, 4] [µg/mL] | MBI 3A4 (CYP3A4) [%] | IC50 (SK-CO-1 cells) [nM] | IC50 (NCI-H358 cells; assay 1, CTG, read-out: H358 (assay 1) IC50) [nM] |
| --- | --- | --- | --- | --- | --- | --- | --- | --- |
| C[C@H](Oc1cc(N2CCC[C@H](O)C2)nc(-c2noc3c2CCC[C@@]32CCCc3sc(N)c(C#N)c32)n1)[C@@H]1CCCN1C [II-57] | 54 | 916 | 286 | 109 (≈ 185 µM) | 101 (≈ 171 µM) | 61 | 87 |  |
| CO[C@@H]1C[C@@H]([C@H](C)Oc2cc(-n3ccnc3)nc(-c3noc4c3CCC[C@@]43CCCc4sc(N)c(C#N)c43)n2)N(C)C1 [II-58] | 342 | 904 | 562 | > 124 | 2 (≈ 3.41 µM) | 68 | 90 |  |
| C[C@H](Oc1cc(N2CCC[C@@H](O)C2)nc(-c2noc3c2CCC[C@@]32CCCc3sc(N)c(C#N)c32)n1)[C@@H]1CCCN1C [II-59] | 31 | 1350 | 337 | > 133 | > 123 | 80 | 67 |  |
| C[C@H](Oc1cc(N2Cc3cnn(C)c3C2)nc(-c2noc3c2CCC[C@@]32CCCc3sc(N)c(C#N)c32)n1)[C@@H]1CCCN1C [II-63] | 1310 | 3390 | 66 | < 1 | < 1 | 74 | 134 |  |
| C[C@H](Oc1cc(N2CC[C@@H](O)C2)nc(-c2noc3c2CCC[C@@]32CCCc3sc(N)c(C#N)c32)n1)[C@@H]1CCCN1C [II-66] | 60 | 5010 | 586 | > 117 | 112 (≈ 195 µM) | 71 | 76 |  |
| C[C@H](Oc1cc(C2=CCOCC2)nc(-c2noc3c2CCC[C@@]32CCCc3sc(N)c(C#N)c32)n1)[C@@H]1CCCN1C [II-67] | 8 | 1300 | 1040 | 98 (≈ 171 µM) | 41 (≈ 71.6 µM) | 72 | 60 |  |
| Cc1cn(C)nc1-c1cc(O[C@@H](C)[C@@H]2CCCN2C)nc(-c2noc3c2CCC[C@@]32CCCc3sc(N)c(C#N)c32)n1 [II-68] | 623 | 1230 | 111 | 79 (≈ 135 µM) | 5 (≈ 8.55 µM) | 74 | 5570 |  |
| C[C@H](Oc1cc(-n2ccnc2)nc(-c2noc3c2CCC[C@@]32CCCc3sc(N)c(C#N)c32)n1)[C@@H]1CCCN1C [II-69] | 102 | 515 | 290 | 108 (≈ 194 µM) | 76 (≈ 137 µM) | 94 | 115 |  |
| C[C@H](Oc1cc(-n2cncn2)nc(-c2noc3c2CCC[C@@]32CCCc3sc(N)c(C#N)c32)n1)[C@@H]1CCCN1C [II-70] | 41 | 891 | 131 | 109 (≈ 195 µM) | 94 (≈ 169 µM) | 64 | 28 |  |
| C[C@H](Oc1cc(-c2cc[nH]n2)nc(-c2noc3c2CCC[C@@]32CCCc3sc(N)c(C#N)c32)n1)[C@@H]1CCCN1C [II-71] | 47 | 933 | 209 | > 112 | 82 (≈ 147 µM) | 79 | 18 |  |
| C[C@H](Oc1cc(-c2cnn(C)c2)nc(-c2noc3c2CCC[C@@]32CCCc3sc(N)c(C#N)c32)n1)[C@@H]1CCCN1C [II-74] | 192 | 2860 | 1680 | 57 (≈ 99.9 µM) | 29 (≈ 50.8 µM) | 81 | 52 |  |
| C[C@H](Oc1cc(N2CCN(C)C2=O)nc(-c2noc3c2CCC[C@@]32CCCc3sc(N)c(C#N)c32)n1)[C@@H]1CCCN1C [II-75] | 31 | 3130 | 10 | > 122 | 91 (≈ 155 µM) | 57 | 23 | 49 |
| C[C@H](Oc1cc(C2CCOCC2)nc(-c2noc3c2CCC[C@@]32CCCc3sc(N)c(C#N)c32)n1)[C@@H]1CCCN1C [II-76] | 66 | 1300 | 507 | > 122 | 104 (≈ 181 µM) | 73 | 120 |  |
| C[C@H](Oc1cc(-c2ccncc2)nc(-c2noc3c2CCC[C@@]32CCCc3sc(N)c(C#N)c32)n1)[C@@H]1CCCN1C [II-78] | 318 | 2140 | 170 | 41 (≈ 72.2 µM) | 3 (≈ 5.28 µM) | 48 | 84 |  |
| CC(=O)N1CC=C(c2cc(O[C@@H](C)[C@@H]3CCCN3C)nc(-c3noc4c3CCC[C@@]43CCCc4sc(N)c(C#N)c43)n2)CC1 [II-81] | 51 | 1680 | 1200 | 114 (≈ 186 µM) | 84 (≈ 137 µM) | 62 | 32 |  |
| C[C@H](Oc1cc(-c2cncnc2)nc(-c2noc3c2CCC[C@@]32CCCc3sc(N)c(C#N)c32)n1)[C@@H]1CCCN1C [II-82] | 990 | 2680 | 807 | 102 (≈ 179 µM) | 72 (≈ 127 µM) | 73 | 170 |  |
| C[C@H](Oc1cc(-c2ccccn2)nc(-c2noc3c2CCC[C@@]32CCCc3sc(N)c(C#N)c32)n1)[C@@H]1CCCN1C [II-85] | 26 | 1120 | 23 | 38 (≈ 66.9 µM) | 3 (≈ 5.28 µM) | 52 | 51 |  |
| C[C@H](Oc1cc(-c2cnn(C)n2)nc(-c2noc3c2CCC[C@@]32CCCc3sc(N)c(C#N)c32)n1)[C@@H]1CCCN1C [II-86] | 502 | 2080 | 993 | 112 (≈ 196 µM) | 60 (≈ 105 µM) | 68 | 121 |  |
| C[C@H](Oc1cc(-c2ccn(-c3ccccc3)n2)nc(-c2noc3c2CCC[C@@]32CCCc3sc(N)c(C#N)c32)n1)[C@@H]1CCCN1C [II-89] | 246 | 1530 | 220 | 2 (≈ 3.16 µM) | < 1 | 73 | 198 |  |
